For assay [1], the system named is other steroid receptors. To be noted: no test described; cited from earlier work.
In assay [2] the test system is R6/2 mouse model. The experiment in a line: Hindlimb clasping test in R6/2 mice. It counts as in vivo. To be noted: 30 mg/kg s.c. daily for 5 weeks. The procedure:
(§1) HD and wild-type (WT) R6/2 mice were purchased from JAX (The Jackson Laboratory, ME, USA) and arrived in the animal facility at 4-weeks of age. The mice were housed under normal conditions (room temperature, 12 hours light/dark cycle) with food and water ab libitum. The mice were housed 3-4 per cage, separated by sex, but different genotypes were housed together to improve the survival of the HD mice^11. Genotyping on tail samples that were collected post-mortem was performed by Laragen (CA, USA) to confirm that all HD mice had between 120-130 CAG repeats.
Animal studies: experimental procedures From 6 weeks of age onwards, mice received a daily subcutaneous (s.c.) injection either with 30 mg/kg of CORT113176 or vehicle (Veh; 10% ethanol and castor oil in experiment 1 or sesame oil in experiment 2) for five consecutive weeks. In experiment 1, male and female mice were assigned into one of the following groups: 1) WT+Veh (n=5 per sex), 2) WT+CORT113176 (n=5), 3) HD+Veh (n=5) or 4) HD+CORT113176 (n=5). In the final analysis there was an unequal group distribution for the male mice due to a mislabeled genotype and a mouse reaching an earlier endpoint resulting in n=6 in the WT+Veh group and n=3 in the HD+Veh group. In experiment 2, male mice were assigned into the following groups: 1) WT+Veh (n=10), 2) HD+Veh (n=10, ultimately n=8 due to a non-responder that met outlier criteria and a mouse reaching an earlier timepoint) and 3) HD+CORT113176 (n=10). Bodyweight was measured weekly and motor tests were performed at 1 PM to monitor the disease progression (as described below). On day 19 and day 34, blood samples were taken in the morning to evaluate corticosterone levels. On day 34, the animals were sacrificed using CO2 inhalation, blood was collected via cardiac puncture and the animals were perfused with cold PBS. Afterwards, several tissues were harvested and snap-frozen for further analysis. Brains were collected and stored for 24 hours at 4% PFA for IHC (further described below). […]

Assay [3] deals with Iba1. The assay is described as follows: Iba1 immunohistochemistry (microglia marker) in hippocampus of R6/2 mice. It counts as in vivo, mouse. To be noted: experiment 1, male HD R6/2 mice, 30 mg/kg s.c. daily for 5 weeks. The procedure: (§2) Animal studies: experimental procedures From 6 weeks of age onwards, mice received a daily subcutaneous (s.c.) injection either with 30 mg/kg of CORT113176 or vehicle (Veh; 10% ethanol and castor oil in experiment 1 or sesame oil in experiment 2) for five consecutive weeks. In experiment 1, male and female mice were assigned into one of the following groups: 1) WT+Veh (n=5 per sex), 2) WT+CORT113176 (n=5), 3) HD+Veh (n=5) or 4) HD+CORT113176 (n=5). In the final analysis there was an unequal group distribution for the male mice due to a mislabeled genotype and a mouse reaching an earlier endpoint resulting in n=6 in the WT+Veh group and n=3 in the HD+Veh group. […] Bodyweight was measured weekly and motor tests were performed at 1 PM to monitor the disease progression (as described below). […] The slides of DARP32, GFAP and Iba1 were scanned with the Axio Slide Scanner (Zeiss, Axio Slide Scan.Z1) and the mHtt slides were analyzed using the confocal microscope (Leica, White Light Laser Confocal Microscope TCS SP8 X). All obtained images were analyzed using ImageJ (version 1.52p). DARP32, GFAP and Iba1 the mean intensity was measured in the striatum and hippocampus. The total number of aggregates in a specific region of interest (ROI), the total area in the ROI and the average size of the aggregates were measured.

Assay [4] relates to R6/2 mouse model. The experiment in a line: Observed epileptic seizures in R6/2 mice (Racine scale). It counts as in vivo. The procedure: as §1
Animal studies: experimental procedures From 6 weeks of age onwards, mice received a daily subcutaneous (s.c.) injection either with 30 mg/kg of CORT113176 or vehicle (Veh; 10% ethanol and castor oil in experiment 1 or sesame oil in experiment 2) for five consecutive weeks. In experiment 1, male and female mice were assigned into one of the following groups: 1) WT+Veh (n=5 per sex), 2) WT+CORT113176 (n=5), 3) HD+Veh (n=5) or 4) HD+CORT113176 (n=5). In the final analysis there was an unequal group distribution for the male mice due to a mislabeled genotype and a mouse reaching an earlier endpoint resulting in n=6 in the WT+Veh group and n=3 in the HD+Veh group. In experiment 2, male mice were assigned into the following groups: 1) WT+Veh (n=10), 2) HD+Veh (n=10, ultimately n=8 due to a non-responder that met outlier criteria and a mouse reaching an earlier timepoint) and 3) HD+CORT113176 (n=10). Bodyweight was measured weekly and motor tests were performed at 1 PM to monitor the disease progression (as described below). On day 19 and day 34, blood samples were taken in the morning to evaluate corticosterone levels. On day 34, the animals were sacrificed using CO2 inhalation, blood was collected via cardiac puncture and the animals were perfused with cold PBS. Afterwards, several tissues were harvested and snap-frozen for further analysis. Brains were collected and stored for 24 hours at 4% PFA for IHC (further described below).
These seizures were not anticipated, but every case was documented throughout the experiment and scored using the Racine scale^15.

In assay [5] the test system is mHtt aggregates. The experiment in a line: mHtt aggregate immunohistochemistry in striatum and hippocampal CA1 of R6/2 mice. It counts as in vivo, mouse. To be noted: experiment 2, male HD R6/2 mice, vs vehicle-treated HD mice. The procedure:
Animal studies: experimental procedures From 6 weeks of age onwards, mice received a daily subcutaneous (s.c.) injection either with 30 mg/kg of CORT113176 or vehicle (Veh; 10% ethanol and castor oil in experiment 1 or sesame oil in experiment 2) for five consecutive weeks. In experiment 1, male and female mice were assigned into one of the following groups: 1) WT+Veh (n=5 per sex), 2) WT+CORT113176 (n=5), 3) HD+Veh (n=5) or 4) HD+CORT113176 (n=5). In the final analysis there was an unequal group distribution for the male mice due to a mislabeled genotype and a mouse reaching an earlier endpoint resulting in n=6 in the WT+Veh group and n=3 in the HD+Veh group. In experiment 2, male mice were assigned into the following groups: 1) WT+Veh (n=10), 2) HD+Veh (n=10, ultimately n=8 due to a non-responder that met outlier criteria and a mouse reaching an earlier timepoint) and 3) HD+CORT113176 (n=10). Bodyweight was measured weekly and motor tests were performed at 1 PM to monitor the disease progression (as described below). On day 19 and day 34, blood samples were taken in the morning to evaluate corticosterone levels. On day 34, the animals were sacrificed using CO2 inhalation, blood was collected via cardiac puncture and the animals were perfused with cold PBS. Afterwards, several tissues were harvested and snap-frozen for further analysis. Brains were collected and stored for 24 hours at 4% PFA for IHC (further described below). Immunohistochemistry Brains were isolated and the left hemisphere was fixated in 4% PFA (Sigma-Aldrich, 8187085000) for 24 hours. Afterwards the brains were transferred to a 30% sucrose solution for 24-48 hours and stored at −80° C. until further processing. Cryosections of 10 μM were collected (CryoStar NX70) on slides (Avantor, VWR® Microscope Slides, 631-1166) and stored at −20° C. until staining. The slides were incubated for 25 minutes with 0.1% Triton X-100 (Sigma-Aldrich), washed with 0.1% PBS/Tween (Tween®20, Sigma-Aldrich). The background signal was blocked with 5% PBSA for 30 minutes before the incubation with the primary antibody DARP32, (1:500, abcam, EP720Y, ab40801), GFAP (1:500, Agilent DAKO, Z0334), Iba1, (1:500, Fujifilm Wako, 019-19741) or mHtt, 1:500 (1:500, abcam, EPR5526, ab209668) overnight at 4° C. The following day slides were washed with 0.1% PBS/Tween before incubation with the secondary antibody goat anti-rabbit Alexa Fluor 488 (1:250, Invitrogen, A-110088) for 30 minutes. After a final wash with 0.1% PBS/Tween, ProLong gold with DAPI (Invitrogen, P36931) was added with a coverslip (Thermo-Fisher, Menzel-Glaser, 0980) and the slides were dried at room temperature. The slides of DARP32, GFAP and Iba1 were scanned with the Axio Slide Scanner (Zeiss, Axio Slide Scan.Z1) and the mHtt slides were analyzed using the confocal microscope (Leica, White Light Laser Confocal Microscope TCS SP8 X). All obtained images were analyzed using ImageJ (version 1.52p). DARP32, GFAP and Iba1 the mean intensity was measured in the striatum and hippocampus. The total number of aggregates in a specific region of interest (ROI), the total area in the ROI and the average size of the aggregates were measured.

The subject of assay [6] is R6/2 mouse model. The experiment in a line: Gait abnormalities in R6/2 mice. To be noted: male R6/2 mice. It counts as in vivo.
Assay [7] deals with GFAP. The experiment in a line: GFAP immunohistochemistry (astrocyte marker) in striatum and hippocampus of R6/2 mice. It counts as in vivo, mouse. Conditions: experiment 1, male HD R6/2 mice, 30 mg/kg s.c. daily for 5 weeks. The procedure: as §2
Assay [8] concerns R6/2 mouse model. The experiment in a line: Forelimb grip strength in R6/2 mice. The class given is in vivo. Conditions: 30 mg/kg s.c. daily for 5 weeks. The procedure:
as §1
Animal studies: experimental procedures From 6 weeks of age onwards, mice received a daily subcutaneous (s.c.) injection either with 30 mg/kg of CORT113176 or vehicle (Veh; 10% ethanol and castor oil in experiment 1 or sesame oil in experiment 2) for five consecutive weeks. In experiment 1, male and female mice were assigned into one of the following groups: 1) WT+Veh (n=5 per sex), 2) WT+CORT113176 (n=5), 3) HD+Veh (n=5) or 4) HD+CORT113176 (n=5). […] Bodyweight was measured weekly and motor tests were performed at 1 PM to monitor the disease progression (as described below). […]
Grip strength: Grip strength measurements were performed weekly to quantify muscle strength. […] The mouse was then gently pulled away until grip was lost, and the force that was required to do this was monitored. […]

Setting [9] is: experiment 1, male HD R6/2 mice, vs vehicle-treated HD mice.
The mark [10] stands for this setting: experiment 2 (larger cohort), male HD R6/2 mice, vs vehicle.

Data on 3 compounds can be found in patent US20250360125A1, “METHODS AND COMPOSITIONS FOR TREATING HUNTINGTON'S DISEASE AND ITS SYMPTOMS” (Corcept Therapeutics Incorporated, priority 2023, published 2025).

The structures appear in SMILES notation.

As to `CC(C)n1ncc(S(=O)(=O)N2CC[C@H]3Cc4c(cnn4-c4ccc(F)cc4)C[C@]3(C(=O)c3cscn3)C2)n1` [zavacorilant, ((4aR,8aS)-1-(4-fluorophenyl)-6-((2-isopropyl-2H-1,2,3-triazol-4-yl)sulfonyl)-4,4a,5,6,7,8,8a,9-octahydro-1H-pyrazolo[3,4-g]isoquinolin-4a-yl)(thiazol-4-yl)methanone], in assay [1], the “Cross-reactivity with other steroid receptors (selectivity for GR)” value (“Cross-reactivity … (selectivity for GR)” for short) was “lacks significant cross-reactivity with other steroid receptors”.

On to `O=C(c1ccccn1)[C@]12Cc3cnn(-c4ccc(F)cc4)c3C=C1CCN(S(=O)(=O)c1ccc(C(F)(F)F)cc1)C2` [CORT113176], for which the Hindlimb clasping score entry in assay [2] (experiment 1, female HD R6/2 mice) was “at later timepoints the treatment did attenuate the clasping score”. For the same compound, the Hindlimb clasping score result in assay [2] (setting [9]) is given as “reduced clasping score”. The Clasping score result in assay [2] (setting [10]) is “reduced clasping score”. Also, the “Iba1 intensity in hippocampus” value in assay [3] is recorded as “tended to be higher”. In addition, in assay [4] (experiment 1, female HD R6/2 mice, 30 mg/kg s.c. daily for 5 weeks), the “Total number of epileptic seizures” value is reported as “none were observed”. The “Total number of epileptic seizures” value in assay [4] (experiment 1, male HD R6/2 mice, 30 mg/kg s.c. daily for 5 weeks, vs vehicle-treated HD mice) is “occurred slightly more frequently in the vehicle-treated HD mice”. Also, the “Time of occurrence of epileptic seizures” value in assay [4] (experiment 1, treated HD R6/2 mice, 5-week study) is “occurred mostly near the end of the five weeks (day 32)”. Moreover, in assay [4] (experiment 2 (larger cohort), male HD R6/2 mice, 30 mg/kg s.c. daily for 5 weeks), the “Number of epileptic seizures” value is reported as “Only one epileptic seizure was observed”. In addition, in assay [1], the “Cross-reactivity … (selectivity for GR)” value is listed as “lacks significant cross-reactivity with other steroid receptors”. Moreover, in assay [5], the “Number of mHtt aggregates in striatum” value is on record as “significantly decreased this number of mHtt aggregates”, the “Total mHtt aggregate area in CA1 region of hippocampus” value is reported as “smaller total aggregate area”, the “Total number of mHtt aggregates in CA1 region of hippocampus” value was “significantly fewer aggregates” and the “mHtt aggregate size in CA1 region of hippocampus” value is “smaller aggregates”. The “mHtt aggregate size in striatum” value in assay [5] is “of a similar size in vehicle- and CORT113176-treated HD groups”. Further, the Gait abnormalities entry in assay [6] is listed as “significantly delayed”. In assay [7], the “GFAP immunoreactivity in striatum” value is reported as “normalized GFAP levels in male” and the “GFAP staining intensity in hippocampus” value is on record as “tended to normalize this HD effect”. Further, the “Forelimb grip strength over time” value in assay [8] (setting [9]) is “attenuated this decrease of muscle function”. In addition, in assay [8] (setting [10]), the Grip strength entry was “improved grip strength”.

`CC#C[C@]1(O)CC[C@H]2[C@@H]3CCC4=CC(=O)CCC4=C3[C@@H](c3ccc(N(C)C)cc3)C[C@@]21C` [mifepristone, reference compound]: the “Cross-reactivity … (selectivity for GR)” value in assay [1] is reported as “is not specific for GR”.
